Laboratory results reported in patent US11415579B2, “Assay for measuring a rate of reaction between a target and a ligand candidate” (Imperial College Innovations Ltd., priority 2016, dated 2022).

Key:
[1] = biological target: T1, human cyclin-dependent kinase 2 (Cdk2) (Homo sapiens, UniProt P24941); assay: Kinetic thiol consumption assay with wild type Cdk2 (C177); type: binding; parameters: key to Rate enhancement, Cdk2 WT: k(Cdk2) divided by k(model thiol); Rate constant with Cdk2 (k(Cdk2)): unit not given here; conditions: for Rate constant with Cdk2 (k(Cdk2)): 500 μM ligand, 5 μM thiol, phosphate buffer pH 8; for Rate enhancement, Cdk2 WT: no additional mutations; for Rate constant with Cdk2 WT: Protein: Cdk2, cysteine position WT, in h^-1; for k(Cdk2)/k(Cdk2_mut) rate enhancement: model thiol Cdk2[C177A, F80C, K278C]; for k(Cdk2)/k(GSH) rate enhancement: model thiol glutathione
T1 construct: poly-histidine; made in house; host or cells: E. coli
Summary of the method: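 Thiol 5 μM (Cdk2 or model thiol), degassed phosphate buffer pH 8, TCEP beads 2% v/v. Plates incubated 1 h RT, ex/em 380/470 nm. First-order decay fit → rate constant; ratio Cdk2/model thiol = rate enhancement.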

Cdk2(H71C) (C177A) = biological target: T2, Cdk2(H71C) (C177A) (Homo sapiens, UniProt P24941, C177A/H71C); assay: Kinetic thiol consumption assay with Cdk2 mutant H71C; type: binding; parameters: key to Rate enhancement, Cdk2 H71C: rate constant with Cdk2 ÷ rate constant with model thiol (fold); conditions: additional mutation C177A; for Rate constant with Cdk2 H71C: Protein: Cdk2, cysteine position H71C, in h^-1
T2 construct: poly-histidine; made in house; host or cells: E. coli
Summary of the method: (§1)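 Read-out is fluorescence at 380/470 nm, taken after 1 h at room temperature and normalized to a DMSO/thiol-only control over time. Thiol (5 μM Cdk2 mutant or model thiol) was in degassed pH 8 phosphate buffer with 2% v/v TCEP beads. Acrylamide rate constants for Cdk2 were divided by those with model thiol.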

Cdk2(T182C) (C177A) = biological target: T3, Cdk2(T182C) (C177A) (Homo sapiens, UniProt P24941, C177A/T182C); assay: Kinetic thiol consumption assay with Cdk2 mutant T182C; type: binding; parameters: key to Rate enhancement, Cdk2 T182C: rate constant with Cdk2 ÷ rate constant with model thiol (fold); conditions: additional mutation C177A; for Rate constant with Cdk2 T182C: Protein: Cdk2, cysteine position T182C, in h^-1
T3 construct: poly-histidine; made in house; host or cells: E. coli
Summary of the method: as §1

Cdk2(C177A, F80C) = biological target: T4, Cdk2(C177A, F80C) (Homo sapiens, UniProt P24941, C177A/F80C); assay: Kinetic thiol consumption assay with Cdk2 mutant F80C, incl. kobs versus concentration (Kd, k2); type: binding; parameters: key to Rate enhancement, Cdk2 F80C: Cdk2 rate constant divided by model-thiol rate constant; conditions: additional mutation C177A; for Rate constant with Cdk2 F80C: Protein: Cdk2, cysteine position F80C, in h^-1
T4 construct: poly-histidine; made in house; host or cells: E. coli
Summary of the method: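 His-tagged Cdk2(C177A/F80C) from E. coli or model thiol, 5 μM in degassed phosphate buffer pH 8 with TCEP beads, reacted with acrylamide ligands; fluorescence (ex/em 380/470 nm) normalized to DMSO control and fitted to first-order decay for kobs. Kd and k2 obtained from hyperbolic fit of kobs versus ligand concentration.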

Cdk2(S181C) (C177A) = biological target: T5, Cdk2(S181C) (C177A) (Homo sapiens, UniProt P24941, C177A/S181C); assay: Kinetic thiol consumption assay with Cdk2 mutant S181C; type: binding; parameters: key to Rate enhancement, Cdk2 S181C: rate constant with Cdk2 ÷ rate constant with model thiol (fold); conditions: additional mutation C177A; for Rate constant with Cdk2 S181C: Protein: Cdk2, cysteine position S181C, in h^-1
T5 construct: poly-histidine; made in house; host or cells: E. coli
Summary of the method: as §1

Cdk2(R122C) (C177A) = biological target: T6, Cdk2(R122C) (C177A) (Homo sapiens, UniProt P24941, C177A/R122C); assay: Kinetic thiol consumption assay with Cdk2 mutant R122C; type: binding; parameters: key to Rate enhancement, Cdk2 R122C: rate constant with Cdk2 ÷ rate constant with model thiol (fold); conditions: additional mutation C177A; for Rate constant with Cdk2 R122C: Protein: Cdk2, cysteine position R122C, in h-1
T6 construct: poly-histidine; made in house; host or cells: E. coli
Summary of the method: as §1

[2] = Kinetic thiol consumption assay with model thiol glutathione; type: physicochemical; parameters: Rate constant with glutathione (k(GSH)): unit not given here; conditions: for Rate constant with glutathione (k(GSH)): 500 μM ligand, 5 μM thiol, phosphate buffer pH 8; for Rate constant with Glutathione: Protein: Glutathione, cysteine position NA, in h-1
Summary of the method: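 First, 5 μM glutathione in degassed phosphate buffer (pH 8) receives immobilized TCEP beads (2% v/v). Then acrylamide is added and plates incubate 1 h at room temperature. Finally, fluorescence (380/470 nm) is normalized and fitted to first-order decay for rate constants.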

Cdk2(N272C) (C177A) = biological target: T7, Cdk2(N272C) (C177A) (Homo sapiens, UniProt P24941, C177A/N272C); assay: Kinetic thiol consumption assay with Cdk2 mutant N272C; type: binding; parameters: key to Rate enhancement, Cdk2 N272: rate constant with Cdk2 ÷ rate constant with model thiol (fold); conditions: for Rate enhancement, Cdk2 N272: Cdk2 N272, additional mutation C177A; for Rate constant with Cdk2 N272C: Protein: Cdk2, cysteine position N272C, additional mutation C177A, in h^-1
T7 construct: poly-histidine; made in house; host or cells: E. coli
Summary of the method: as §1

Cdk2(S276C) (C177A) = biological target: T8, Cdk2(S276C) (C177A) (Homo sapiens, UniProt P24941, C177A/S276C); assay: Kinetic thiol consumption assay with Cdk2 mutant S276C; type: binding; parameters: key to Rate enhancement, Cdk2 S276C: rate constant with Cdk2 ÷ rate constant with model thiol (fold); conditions: additional mutation C177A; for Rate constant with Cdk2 S276C: Protein: Cdk2, cysteine position S276C, in h^-1
T8 construct: poly-histidine; made in house; host or cells: E. coli
Summary of the method: as §1

Cdk2[C177A, F80C, K278C] = biological target: T9, Cdk2[C177A, F80C, K278C] (Homo sapiens, UniProt P24941, C177A/F80C/K278C); assay: Kinetic thiol consumption assay with mutant Cdk2 as model thiol; type: binding; parameters: unit not given here; conditions: 500 μM ligand, 5 μM thiol, phosphate buffer pH 8
T9 construct: poly-histidine; made in house; host or cells: E. coli
Summary of the method: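 First-order rate constants were derived by exponential-decay fitting of DMSO/thiol-normalized fluorescence (380/470 nm) over time at room temperature. Thiol was 5 μM E. coli-expressed His-tagged Cdk2 mutant C177A/F80C/K278C in degassed pH 8 phosphate buffer containing 2% v/v TCEP beads.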

Row | Rate constant with Cdk2 (k(Cdk2)) [1] | Rate enhancement, Cdk2 WT [1] | Rate constant with Cdk2 WT [1] | k(Cdk2)/k(Cdk2_mut) rate enhancement [1] | k(Cdk2)/k(GSH) rate enhancement [1] | Rate enhancement, Cdk2 H71C (Cdk2(H71C) (C177A)) | Rate constant with Cdk2 H71C (Cdk2(H71C) (C177A)) | Rate enhancement, Cdk2 T182C (Cdk2(T182C) (C177A)) | Rate constant with Cdk2 T182C (Cdk2(T182C) (C177A)) | Rate enhancement, Cdk2 S181C (Cdk2(S181C) (C177A)) | Rate constant with Cdk2 S181C (Cdk2(S181C) (C177A)) | Rate enhancement, Cdk2 R122C (Cdk2(R122C) (C177A)) | Rate constant with Cdk2 R122C (Cdk2(R122C) (C177A)) | Rate enhancement, Cdk2 N272 (Cdk2(N272C) (C177A)) | Rate constant with Cdk2 N272C (Cdk2(N272C) (C177A)) | Rate enhancement, Cdk2 S276C (Cdk2(S276C) (C177A)) | Rate constant with Cdk2 S276C (Cdk2(S276C) (C177A)) | Rate constant with Cdk2[C177A, F80C, K278C] (k(Cdk2_mut)) (Cdk2[C177A, F80C, K278C]) | SMILES | Rate constant with glutathione (k(GSH)) [2] | Rate constant with Glutathione [2] | also measured
1 | 0.00097 | 0.2251 | 0.000968 | 0.177 | 0.226 | 1.165 | 0.005009 | 13.66 | 0.05877 | 14.88 | 0.06402 | 1.018 | 0.004377 | 1.415 | 0.006086 | 1 | 0.004301 | 0.00547 | C=CC(=O)N1C(C(=O)c2ccccc2)C1c1ccccc1 (stereo not shown) [CA-53] | 0.00428 | 0.004301 | Rate enhancement, Cdk2 F80C (Cdk2(C177A, F80C)): 2.22; Rate constant with Cdk2 F80C (Cdk2(C177A, F80C)): 0.009547
2 | 0.0716 | 2.701 | 0.0716 | 0.7607 | 2.77 | 1.636 | 0.04338 | 18.51 | 0.4908 | 1.069 | 0.02834 | 1.176 | 0.03118 | 2.885 | 0.07649 | 1.606 | 0.04258 | 0.09413 | C=CC(=O)Nc1cccc(-c2nnnn2C2CC2)c1 [CA-057] | 0.02585 | 0.02651 | Rate enhancement, Cdk2 F80C (Cdk2(C177A, F80C)): 2.139; Rate constant with Cdk2 F80C (Cdk2(C177A, F80C)): 0.05671
3 | 0.00226 | 0.7143 | 0.00367 | 1.013 | 0.7988 | 0 |  | 1.619 | 0.00832 | 0.7812 | 0.004014 | 0.4675 | 0.002402 | 3.677 | 0.01889 | 1.112 | 0.005711 | 0.00223 | C=CC(=O)NCCCN(C(=O)C1CCC1)C1CC1 [CA-060] | 0.00283 | 0.005138 | Rate constant with Cdk2 F80C (Cdk2(C177A, F80C)): ~0.0004944

Further lines, the compound ahead of its results:

Row | SMILES | Rate constant with Cdk2 (k(Cdk2)) [1] | Rate enhancement, Cdk2 WT [1] | Rate constant with Cdk2 WT [1] | k(Cdk2)/k(Cdk2_mut) rate enhancement [1] | k(Cdk2)/k(GSH) rate enhancement [1] | Rate enhancement, Cdk2 H71C (Cdk2(H71C) (C177A)) | Rate constant with Cdk2 H71C (Cdk2(H71C) (C177A)) | Rate enhancement, Cdk2 T182C (Cdk2(T182C) (C177A)) | Rate constant with Cdk2 T182C (Cdk2(T182C) (C177A)) | Rate enhancement, Cdk2 S181C (Cdk2(S181C) (C177A)) | Rate constant with Cdk2 S181C (Cdk2(S181C) (C177A)) | Rate enhancement, Cdk2 R122C (Cdk2(R122C) (C177A)) | Rate constant with Cdk2 R122C (Cdk2(R122C) (C177A)) | Rate enhancement, Cdk2 N272 (Cdk2(N272C) (C177A)) | Rate constant with Cdk2 N272C (Cdk2(N272C) (C177A)) | Rate enhancement, Cdk2 S276C (Cdk2(S276C) (C177A)) | Rate constant with Cdk2 S276C (Cdk2(S276C) (C177A)) | Rate constant with Cdk2[C177A, F80C, K278C] (k(Cdk2_mut)) (Cdk2[C177A, F80C, K278C]) | Rate constant with glutathione (k(GSH)) [2] | Rate constant with Glutathione [2] | also measured
4 | C=CC(=O)Nc1ccc2c(c1)OC1(CCCC1)O2 [CA-054] | 0.00267 | 0.6163 | 0.002666 | 0.0662 | 0.614 | 1.023 | 0.004426 | 1.059 | 0.004582 | 0.4697 | 0.002032 | 0.4198 | 0.001816 | 1.248 | 0.005397 | 0.9498 | 0.004109 | 0.04027 | 0.00434 | 0.004326 | Rate enhancement, Cdk2 F80C (Cdk2(C177A, F80C)): 1.482; Rate constant with Cdk2 F80C (Cdk2(C177A, F80C)): 0.006411
5 | C=CC(=O)NC1C2CC3CC(C2)CC1C3 (stereo not shown) [CA-055] | 0.0007 | 0.4066 | 0.0009681 | 0.6937 | 0.2881 | 0.4859 | 0.001157 | 0.2621 | 0.0006241 | 1.073 | 0.002556 | 0.4288 | 0.001021 | 4.591 | 0.01093 | 0.6972 | 0.00166 | 0.00101 | 0.00243 | 0.002381 | Rate enhancement, Cdk2 F80C (Cdk2(C177A, F80C)): 0
6 | C=CC(=O)N1CCc2sccc2C1c1cccs1 (stereo not shown) [CA-056] | 0.02004 | 1.15 | 0.02004 | 0.1472 | 1.152 | 1.254 | 0.02185 | 18.35 | 0.3197 | 2.069 | 0.03604 | 0.7819 | 0.01362 | 1.548 | 0.02696 | 1.776 | 0.03094 | 0.1361 | 0.0174 | 0.01742 | Rate enhancement, Cdk2 F80C (Cdk2(C177A, F80C)): 4.984; Rate constant with Cdk2 F80C (Cdk2(C177A, F80C)): 0.08682
7 | C=CC(=O)N1CC(Cc2ccccc2)C1 [CA-072] | 0.0241 | 1.085 | 0.0241 | 5.016 | 1.95 | 16.46 | 0.3655 | 6.718 | 0.1492 | 2.167 | 0.04813 | 0.3503 | 0.00778 | 9.388 | 0.2085 | 4.036 | 0.08965 | 0.00481 | 0.01236 | 0.02221 | Rate enhancement, Cdk2 F80C (Cdk2(C177A, F80C)): 0.2566; Rate constant with Cdk2 F80C (Cdk2(C177A, F80C)): 0.0057
